Results published in ChEMBL document CHEMBL3991601, “The target landscape of clinical kinase drugs” (Science, 2017).
pKd: −log10 of the molar value. Calls of active or inactive are those of the source. Rule as the data show it, for most assays here: actives have a measured Kd and inactives only a lower limit.

Tests used:
[1] = target: Tyrosine-protein kinase ABL1 (Homo sapiens, UniProt P00519)
[2] = target: T1, AarF domain-containing protein kinase 1 (Homo sapiens, UniProt Q86TW2)
T1 sequence (Q86TW2 whole entry): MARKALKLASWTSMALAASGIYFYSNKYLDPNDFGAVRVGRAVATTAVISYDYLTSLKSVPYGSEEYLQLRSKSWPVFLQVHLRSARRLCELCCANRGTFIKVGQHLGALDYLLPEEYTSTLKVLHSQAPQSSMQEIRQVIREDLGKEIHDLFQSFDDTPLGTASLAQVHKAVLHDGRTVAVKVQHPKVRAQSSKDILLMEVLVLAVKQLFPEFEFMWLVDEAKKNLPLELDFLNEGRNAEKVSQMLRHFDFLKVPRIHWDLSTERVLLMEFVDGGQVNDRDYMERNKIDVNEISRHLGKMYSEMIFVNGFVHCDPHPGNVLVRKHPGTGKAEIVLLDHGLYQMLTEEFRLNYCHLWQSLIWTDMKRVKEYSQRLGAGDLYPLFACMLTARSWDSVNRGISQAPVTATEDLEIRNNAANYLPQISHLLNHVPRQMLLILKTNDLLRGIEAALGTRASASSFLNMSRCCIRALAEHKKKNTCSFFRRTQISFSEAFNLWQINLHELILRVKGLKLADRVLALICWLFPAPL

[3] = target: T2, Cyclin-G-associated kinase (Homo sapiens, UniProt O14976)
T2 sequence (O14976 whole entry): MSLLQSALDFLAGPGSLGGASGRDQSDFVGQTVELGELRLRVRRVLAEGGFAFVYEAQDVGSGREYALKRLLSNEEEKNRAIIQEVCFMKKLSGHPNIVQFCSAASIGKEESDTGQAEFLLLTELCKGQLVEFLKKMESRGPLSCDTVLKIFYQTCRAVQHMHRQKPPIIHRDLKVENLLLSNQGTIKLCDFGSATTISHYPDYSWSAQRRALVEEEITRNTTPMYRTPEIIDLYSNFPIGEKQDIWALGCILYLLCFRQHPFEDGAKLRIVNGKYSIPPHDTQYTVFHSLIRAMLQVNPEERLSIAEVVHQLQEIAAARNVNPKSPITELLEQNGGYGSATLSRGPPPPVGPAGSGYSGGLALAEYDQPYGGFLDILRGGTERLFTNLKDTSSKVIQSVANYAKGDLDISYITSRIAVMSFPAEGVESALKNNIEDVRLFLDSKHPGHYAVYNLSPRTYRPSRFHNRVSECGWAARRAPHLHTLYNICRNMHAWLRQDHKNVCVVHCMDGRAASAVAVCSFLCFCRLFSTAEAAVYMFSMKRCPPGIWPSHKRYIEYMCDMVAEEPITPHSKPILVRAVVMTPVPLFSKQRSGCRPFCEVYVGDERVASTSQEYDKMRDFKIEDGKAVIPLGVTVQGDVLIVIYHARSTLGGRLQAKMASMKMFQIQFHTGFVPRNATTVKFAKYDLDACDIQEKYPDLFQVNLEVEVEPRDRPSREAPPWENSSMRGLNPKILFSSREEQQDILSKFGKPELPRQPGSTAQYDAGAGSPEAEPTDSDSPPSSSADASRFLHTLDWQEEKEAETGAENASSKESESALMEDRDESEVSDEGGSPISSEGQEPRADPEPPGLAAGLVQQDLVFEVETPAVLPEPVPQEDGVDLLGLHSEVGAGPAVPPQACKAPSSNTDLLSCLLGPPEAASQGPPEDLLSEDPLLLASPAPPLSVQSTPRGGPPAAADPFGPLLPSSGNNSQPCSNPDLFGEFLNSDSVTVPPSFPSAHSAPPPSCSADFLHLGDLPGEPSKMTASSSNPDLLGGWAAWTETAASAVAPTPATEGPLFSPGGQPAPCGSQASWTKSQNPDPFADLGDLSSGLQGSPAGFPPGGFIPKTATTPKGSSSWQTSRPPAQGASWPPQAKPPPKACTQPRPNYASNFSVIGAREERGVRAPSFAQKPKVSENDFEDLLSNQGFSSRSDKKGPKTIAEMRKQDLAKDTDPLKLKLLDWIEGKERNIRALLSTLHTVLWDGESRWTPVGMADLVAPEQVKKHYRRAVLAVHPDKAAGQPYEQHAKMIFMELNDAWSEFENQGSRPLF

[4] = target: T3, DNA replication licensing factor MCM4 (Homo sapiens, UniProt P33991)
T3 sequence (P33991 whole entry): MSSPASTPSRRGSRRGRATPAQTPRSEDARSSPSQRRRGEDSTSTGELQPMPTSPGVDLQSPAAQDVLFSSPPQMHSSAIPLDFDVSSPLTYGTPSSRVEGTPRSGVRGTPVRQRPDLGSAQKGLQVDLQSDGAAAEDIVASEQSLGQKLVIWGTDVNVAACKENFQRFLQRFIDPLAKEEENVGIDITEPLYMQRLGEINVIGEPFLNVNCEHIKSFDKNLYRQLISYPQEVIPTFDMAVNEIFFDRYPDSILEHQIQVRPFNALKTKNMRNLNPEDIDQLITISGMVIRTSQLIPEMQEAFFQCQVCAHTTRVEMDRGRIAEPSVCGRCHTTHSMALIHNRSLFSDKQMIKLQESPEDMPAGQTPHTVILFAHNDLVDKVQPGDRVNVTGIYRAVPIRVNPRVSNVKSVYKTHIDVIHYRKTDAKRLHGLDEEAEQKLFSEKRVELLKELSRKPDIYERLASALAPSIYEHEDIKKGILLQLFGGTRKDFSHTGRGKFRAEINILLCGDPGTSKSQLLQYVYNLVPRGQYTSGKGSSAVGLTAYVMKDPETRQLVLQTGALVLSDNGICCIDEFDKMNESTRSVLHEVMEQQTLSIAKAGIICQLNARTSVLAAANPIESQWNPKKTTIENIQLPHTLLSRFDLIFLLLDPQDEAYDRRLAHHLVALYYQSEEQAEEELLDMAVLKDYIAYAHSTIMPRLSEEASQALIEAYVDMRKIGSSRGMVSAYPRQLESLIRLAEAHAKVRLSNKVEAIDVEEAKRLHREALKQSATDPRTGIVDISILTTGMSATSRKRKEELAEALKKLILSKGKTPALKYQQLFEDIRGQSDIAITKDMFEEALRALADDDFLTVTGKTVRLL

[5] = target: Myosin light chain kinase, smooth muscle (Homo sapiens, UniProt Q15746)
[6] = target: Receptor-interacting serine/threonine-protein kinase 2 (Homo sapiens, UniProt O43353)
[7] = target: Proto-oncogene tyrosine-protein kinase Src (Homo sapiens, UniProt P12931)
Also: in the data inactive means no Kd found up to 30 µM.

Sequence of Receptor-interacting serine/threonine-protein kinase 2 (O43353 whole entry): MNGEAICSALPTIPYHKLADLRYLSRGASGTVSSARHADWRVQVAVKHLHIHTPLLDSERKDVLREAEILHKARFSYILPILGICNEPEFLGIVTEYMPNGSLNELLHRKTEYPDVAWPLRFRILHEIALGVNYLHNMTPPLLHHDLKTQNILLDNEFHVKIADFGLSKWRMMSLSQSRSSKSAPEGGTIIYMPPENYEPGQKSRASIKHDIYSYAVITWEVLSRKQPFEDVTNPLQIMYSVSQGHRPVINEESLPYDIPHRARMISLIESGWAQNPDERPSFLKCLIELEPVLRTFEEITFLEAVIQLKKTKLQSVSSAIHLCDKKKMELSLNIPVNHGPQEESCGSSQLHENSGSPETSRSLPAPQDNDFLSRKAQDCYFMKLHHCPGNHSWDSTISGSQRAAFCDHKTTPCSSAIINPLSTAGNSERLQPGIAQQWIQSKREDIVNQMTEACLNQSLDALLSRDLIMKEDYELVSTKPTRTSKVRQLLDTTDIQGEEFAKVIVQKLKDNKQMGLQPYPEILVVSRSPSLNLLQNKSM
Sequence of Myosin light chain kinase, smooth muscle (Q15746 whole entry): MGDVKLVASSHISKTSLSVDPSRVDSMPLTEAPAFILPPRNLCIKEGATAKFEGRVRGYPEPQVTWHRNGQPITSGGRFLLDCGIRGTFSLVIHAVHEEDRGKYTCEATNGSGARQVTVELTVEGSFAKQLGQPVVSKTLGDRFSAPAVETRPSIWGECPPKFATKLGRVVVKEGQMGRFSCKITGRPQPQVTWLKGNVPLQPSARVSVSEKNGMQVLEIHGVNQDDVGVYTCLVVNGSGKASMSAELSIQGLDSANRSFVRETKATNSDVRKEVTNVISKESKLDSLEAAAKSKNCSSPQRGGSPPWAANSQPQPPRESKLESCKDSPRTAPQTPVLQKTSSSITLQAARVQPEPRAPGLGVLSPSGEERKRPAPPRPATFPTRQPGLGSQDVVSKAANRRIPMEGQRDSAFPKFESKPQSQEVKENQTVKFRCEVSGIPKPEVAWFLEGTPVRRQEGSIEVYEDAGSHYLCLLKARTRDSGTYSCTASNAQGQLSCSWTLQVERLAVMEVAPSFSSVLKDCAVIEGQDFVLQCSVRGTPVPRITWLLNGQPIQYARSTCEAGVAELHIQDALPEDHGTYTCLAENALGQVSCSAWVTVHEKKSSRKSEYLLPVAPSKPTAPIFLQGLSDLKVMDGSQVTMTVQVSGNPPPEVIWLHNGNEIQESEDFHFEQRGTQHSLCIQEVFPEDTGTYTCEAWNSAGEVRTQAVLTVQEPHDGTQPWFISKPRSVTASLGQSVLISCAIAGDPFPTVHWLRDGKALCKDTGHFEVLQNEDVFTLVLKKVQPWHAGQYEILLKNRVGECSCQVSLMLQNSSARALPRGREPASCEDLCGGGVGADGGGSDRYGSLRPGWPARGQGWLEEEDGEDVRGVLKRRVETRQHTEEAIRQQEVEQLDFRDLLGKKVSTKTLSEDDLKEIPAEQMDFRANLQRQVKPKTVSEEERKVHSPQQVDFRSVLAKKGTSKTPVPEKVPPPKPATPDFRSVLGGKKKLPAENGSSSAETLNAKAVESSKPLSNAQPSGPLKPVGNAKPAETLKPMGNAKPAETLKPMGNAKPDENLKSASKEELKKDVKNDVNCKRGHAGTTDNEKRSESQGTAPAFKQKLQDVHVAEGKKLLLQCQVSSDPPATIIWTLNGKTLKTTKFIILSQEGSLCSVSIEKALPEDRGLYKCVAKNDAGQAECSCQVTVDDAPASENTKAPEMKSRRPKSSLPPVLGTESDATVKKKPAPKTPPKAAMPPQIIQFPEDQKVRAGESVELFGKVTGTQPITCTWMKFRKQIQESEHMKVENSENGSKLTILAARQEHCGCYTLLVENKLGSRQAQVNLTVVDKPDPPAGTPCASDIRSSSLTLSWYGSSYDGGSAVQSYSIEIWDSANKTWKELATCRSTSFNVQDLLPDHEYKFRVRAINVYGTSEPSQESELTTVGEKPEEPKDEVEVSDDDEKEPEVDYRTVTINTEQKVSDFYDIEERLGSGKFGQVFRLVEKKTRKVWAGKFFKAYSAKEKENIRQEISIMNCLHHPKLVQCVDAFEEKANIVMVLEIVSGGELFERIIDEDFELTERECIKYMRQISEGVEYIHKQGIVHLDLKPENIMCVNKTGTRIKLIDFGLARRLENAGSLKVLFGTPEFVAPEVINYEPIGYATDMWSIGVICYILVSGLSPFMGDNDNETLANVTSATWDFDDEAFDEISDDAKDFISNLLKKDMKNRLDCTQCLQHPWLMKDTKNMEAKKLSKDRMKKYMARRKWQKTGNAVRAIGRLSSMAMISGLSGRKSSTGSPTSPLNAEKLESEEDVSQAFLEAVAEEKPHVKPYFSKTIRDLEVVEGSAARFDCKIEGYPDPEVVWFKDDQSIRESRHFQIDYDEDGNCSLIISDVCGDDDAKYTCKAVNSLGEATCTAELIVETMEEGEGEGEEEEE
Sequence of Tyrosine-protein kinase ABL1 (P00519 whole entry, the tested form may be a part): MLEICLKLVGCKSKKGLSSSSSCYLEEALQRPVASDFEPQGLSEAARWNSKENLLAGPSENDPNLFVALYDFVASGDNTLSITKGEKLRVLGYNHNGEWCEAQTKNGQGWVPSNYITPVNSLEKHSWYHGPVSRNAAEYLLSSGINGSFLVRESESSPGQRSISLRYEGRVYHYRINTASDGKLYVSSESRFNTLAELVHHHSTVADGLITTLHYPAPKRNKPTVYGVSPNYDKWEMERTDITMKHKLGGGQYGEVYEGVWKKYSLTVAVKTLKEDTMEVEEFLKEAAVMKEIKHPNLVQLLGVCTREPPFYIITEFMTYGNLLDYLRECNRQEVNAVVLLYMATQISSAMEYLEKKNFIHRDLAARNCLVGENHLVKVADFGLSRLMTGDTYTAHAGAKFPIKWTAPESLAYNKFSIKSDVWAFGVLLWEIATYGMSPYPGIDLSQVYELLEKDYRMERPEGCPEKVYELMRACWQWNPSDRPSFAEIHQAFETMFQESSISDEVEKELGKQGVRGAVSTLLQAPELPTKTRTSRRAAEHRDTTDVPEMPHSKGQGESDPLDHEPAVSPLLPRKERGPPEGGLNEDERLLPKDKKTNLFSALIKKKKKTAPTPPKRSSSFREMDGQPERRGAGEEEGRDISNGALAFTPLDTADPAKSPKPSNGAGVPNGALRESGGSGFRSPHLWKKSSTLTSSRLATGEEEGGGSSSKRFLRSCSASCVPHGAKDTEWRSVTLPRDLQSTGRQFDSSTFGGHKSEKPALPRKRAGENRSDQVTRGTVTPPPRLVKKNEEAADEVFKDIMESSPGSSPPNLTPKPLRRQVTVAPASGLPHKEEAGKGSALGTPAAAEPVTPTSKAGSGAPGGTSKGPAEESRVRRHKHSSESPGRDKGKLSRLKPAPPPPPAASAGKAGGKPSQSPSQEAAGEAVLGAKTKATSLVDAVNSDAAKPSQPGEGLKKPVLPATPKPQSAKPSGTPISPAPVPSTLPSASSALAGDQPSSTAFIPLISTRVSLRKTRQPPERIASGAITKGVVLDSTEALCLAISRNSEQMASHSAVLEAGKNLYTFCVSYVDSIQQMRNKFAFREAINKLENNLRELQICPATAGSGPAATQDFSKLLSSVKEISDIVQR
Sequence of Proto-oncogene tyrosine-protein kinase Src (P12931 2-536 limits assumed): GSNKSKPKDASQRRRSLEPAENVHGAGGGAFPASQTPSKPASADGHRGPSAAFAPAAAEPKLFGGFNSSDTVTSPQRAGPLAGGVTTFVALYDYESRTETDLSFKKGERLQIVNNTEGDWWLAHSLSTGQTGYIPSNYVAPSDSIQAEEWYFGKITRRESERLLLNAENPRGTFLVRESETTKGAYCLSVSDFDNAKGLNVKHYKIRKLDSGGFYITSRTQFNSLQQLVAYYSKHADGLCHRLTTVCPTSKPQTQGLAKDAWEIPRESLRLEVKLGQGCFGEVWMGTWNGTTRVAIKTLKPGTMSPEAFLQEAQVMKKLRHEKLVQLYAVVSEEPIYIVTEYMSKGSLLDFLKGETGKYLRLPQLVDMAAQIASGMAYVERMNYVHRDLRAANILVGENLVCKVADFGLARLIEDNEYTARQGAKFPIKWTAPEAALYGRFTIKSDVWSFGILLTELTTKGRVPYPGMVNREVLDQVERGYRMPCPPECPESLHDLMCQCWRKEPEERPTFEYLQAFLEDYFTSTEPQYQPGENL

Row | SMILES | Kd [1] | Kd [2] | Kd [3] | Kd [4] | Kd [5] | Kd [6] | Kd [7] | pKd [1]
1 | S=C(NCc1ccc2c(c1)OCO2)N1CCN(c2ncnc3c2oc2ccccc23)CC1 [AMUVATINIB] | > 30 µM (inactive) | > 30 µM (inactive) | > 30 µM (inactive) | > 30 µM (inactive) | > 30 µM (inactive) | > 30 µM (inactive) | > 30 µM (inactive) | –
2 | NC[C@@](O)(c1ccc(Cl)cc1)c1ccc(-c2cn[nH]c2)cc1 [AT-13148] | > 30 µM (inactive) | > 30 µM (inactive) | > 30 µM (inactive) | > 30 µM (inactive) | > 30 µM (inactive) | > 30 µM (inactive) | > 30 µM (inactive) | –
3 | COc1ccc(-c2ccc3ncc4c(c3c2)n(-c2ccc(N3CCNCC3)c(C(F)(F)F)c2)c(=O)n4C)cn1 [BGT-226 FREE BASE] | > 30 µM (inactive) | > 30 µM (inactive) | > 30 µM (inactive) | > 30 µM (inactive) | > 30 µM (inactive) | > 30 µM (inactive) | > 30 µM (inactive) | –
4 | COc1cc2nccc(Oc3ccc(NC(=O)C4(C(=O)Nc5ccc(F)cc5)CC4)cc3)c2cc1OC [CABOZANTINIB] | 1.1 µM (active) | > 30 µM (inactive) | > 30 µM (inactive) | > 30 µM (inactive) | > 30 µM (inactive) | 0.767 µM (active) | > 30 µM (inactive) | –
5 | CC1(COc2ccc3c(c2)ncn3-c2ccc3cccc(N4CCC(N)CC4)c3n2)COC1 [CRENOLANIB] | > 30 µM (inactive) | > 30 µM (inactive) | 2.41 µM (active) | > 30 µM (inactive) | > 30 µM (inactive) | 1.31 µM (active) | > 30 µM (inactive) | –
6 | COc1cc2ncnc(Nc3ccc(F)c(Cl)c3)c2cc1NC(=O)/C=C/CN1CCCCC1 [DACOMITINIB ANHYDROUS] | > 30 µM (inactive) | > 30 µM (inactive) | 0.168 µM (active) | > 30 µM (inactive) | > 30 µM (inactive) | 0.988 µM (active) | > 30 µM (inactive) | –
7 | CC[C@@](C)(Nc1ccnc(-c2c[nH]c3ncccc23)n1)C(=O)NCC(F)(F)F [DECERNOTINIB] | – | > 30 µM (inactive) | > 30 µM (inactive) | > 30 µM (inactive) | > 30 µM (inactive) | > 30 µM (inactive) | > 30 µM (inactive) | 6.07
8 | CNC(=O)c1ccc(Nc2ncc(C(F)(F)F)c(NCc3nccnc3N(C)S(C)(=O)=O)n2)cc1 [DEFACTINIB] | > 30 µM (inactive) | > 30 µM (inactive) | > 30 µM (inactive) | > 30 µM (inactive) | > 30 µM (inactive) | > 30 µM (inactive) | > 30 µM (inactive) | –
9 | COc1cc(Nc2ncc(F)c(Nc3ccc4c(n3)N(COP(=O)(O)O)C(=O)C(C)(C)O4)n2)cc(OC)c1OC [FOSTAMATINIB] | > 30 µM (inactive) | 1.07 µM (active) | > 30 µM (inactive) | > 30 µM (inactive) | > 30 µM (inactive) | > 30 µM (inactive) | > 30 µM (inactive) | –
10 | CCc1nc(C(N)=O)c(Nc2ccc(N3CCC(N4CCN(C)CC4)CC3)c(OC)c2)nc1NC1CCOCC1 [GILTERITINIB] | > 30 µM (inactive) | 0.152 µM (active) | 0.009 µM (active) | > 30 µM (inactive) | 0.188 µM (active) | 0.482 µM (active) | > 30 µM (inactive) | –
11 | Cc1c(Cn2c(C)nc3c(C(=O)O)cc(N4CCOCC4)cc32)cccc1C(F)(F)F [GSK-2636771] | > 30 µM (inactive) | > 30 µM (inactive) | > 30 µM (inactive) | > 30 µM (inactive) | > 30 µM (inactive) | > 30 µM (inactive) | > 30 µM (inactive) | –
12 | C#Cc1cccc(Nc2ncnc3cc4c(cc23)OCCOCCOCCO4)c1 [ICOTINIB] | > 30 µM (inactive) | > 30 µM (inactive) | 0.725 µM (active) | > 30 µM (inactive) | > 30 µM (inactive) | 2.63 µM (active) | > 30 µM (inactive) | –

Further lines, results first:

Row | Kd [1] | Kd [2] | Kd [3] | Kd [4] | Kd [5] | Kd [6] | Kd [7] | pKd [1] | SMILES
13 | > 30 µM (inactive) | > 30 µM (inactive) | > 30 µM (inactive) | > 30 µM (inactive) | > 30 µM (inactive) | > 30 µM (inactive) | > 30 µM (inactive) | – | COc1ccc2c(OCc3nnc4ccc(-c5ccccc5)nn34)ccnc2c1 [AMG-208]
14 | > 30 µM (inactive) | > 30 µM (inactive) | > 30 µM (inactive) | > 30 µM (inactive) | > 30 µM (inactive) | > 30 µM (inactive) | > 30 µM (inactive) | – | Cc1cc(Nc2nc(N[C@@H](C)c3ncc(F)cn3)ncc2Cl)n[nH]1 [AZD-1480]
15 | 0.128 µM (active) | > 30 µM (inactive) | 0.0003 µM (active) | > 30 µM (inactive) | > 30 µM (inactive) | > 30 µM (inactive) | 1.15 µM (active) | – | COc1cccc(Nc2ncnn3ccc(CN4CC[C@@H](N)[C@H](O)C4)c23)c1 [BMS-690514]
16 | 0.523 µM (active) | > 30 µM (inactive) | > 30 µM (inactive) | > 30 µM (inactive) | > 30 µM (inactive) | > 30 µM (inactive) | > 30 µM (inactive) | – | CCOc1ccn(-c2ccc(F)cc2)c(=O)c1C(=O)Nc1ccc(Oc2ccnc(N)c2Cl)c(F)c1 [BMS-777607]
17 | > 30 µM (inactive) | > 30 µM (inactive) | 1.46 µM (active) | > 30 µM (inactive) | > 30 µM (inactive) | > 30 µM (inactive) | > 30 µM (inactive) | – | c1cc(OCCN2CCCCC2)cc(-c2n[nH]c3ccc(-c4nc[nH]n4)cc23)c1 [CC-401]
18 | > 30 µM (inactive) | > 30 µM (inactive) | 0.12 µM (active) | > 30 µM (inactive) | > 30 µM (inactive) | 0.39 µM (active) | > 30 µM (inactive) | – | COc1cc2ncnc3c2cc1OCCCCCN(C)Cc1ccc(Br)cc1N3 [JNJ-26483327]
